PubChem BioAssay (NCI)
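Assay format: 96-well plates, 48-hour exposure. Abbreviation: GI50, concentration required for 50% inhibition of growth. The concentration for full growth arrest is given as TGI.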

Tests used:
Experiment in all cases: NCI-60 cell line screen, 48 h
SW-620 colon = system: SW-620 colon
OVCAR-8 ovarian = system: OVCAR-8 ovarian
COLO 205 colon = system: COLO 205 colon
MDA-MB-231 breast = system: MDA-MB-231 breast
SF-268 CNS = system: SF-268 CNS
KM12 colon = system: KM12 colon
SNB-75 CNS = system: SNB-75 CNS
UO-31 renal = system: UO-31 renal
SF-295 CNS = system: SF-295 CNS
HS 578T breast = system: HS 578T breast

SMILES | GI50 (SW-620 colon) [µM] | TGI (SW-620 colon) [µM] | GI50 (OVCAR-8 ovarian) [µM] | TGI (OVCAR-8 ovarian) [µM] | GI50 (COLO 205 colon) [µM] | TGI (COLO 205 colon) [µM] | GI50 (MDA-MB-231 breast) [µM] | TGI (MDA-MB-231 breast) [µM] | GI50 (SF-268 CNS) [µM] | TGI (SF-268 CNS) [µM] | GI50 (KM12 colon) [µM] | TGI (KM12 colon) [µM] | GI50 (SNB-75 CNS) [µM] | TGI (SNB-75 CNS) [µM] | GI50 (UO-31 renal) [µM] | TGI (UO-31 renal) [µM] | GI50 (SF-295 CNS) [µM] | TGI (SF-295 CNS) [µM] | GI50 (HS 578T breast) [µM] | TGI (HS 578T breast) [µM]
O=C1NC(=N[C@@H]2C[C@H]2c2ccccc2)S/C1=C\c1ccc2ncccc2c1 | 0.901 | > 19.4 | 2.05 | 9.69 | 0.813 | 2.35 | 5.02 | 22.4 | 2.25 | 8.02 | 1.47 | > 12.7 | 1.02 | 5.17 | 2.06 | 6.78 | 1.29 | > 12.8 | 1.25 | 11.6
O=C(NCCCNc1cc(-c2cn(-c3ccccc3)nc2-c2cccc(O)c2)ccn1)c1ccc(F)cc1 | 2.95 | 9.55 | 4.01 | 21.2 | 1.6 | 3.34 | 2.09 | 4.98 | 2.99 | 26.9 | 3.18 | 12.3 | 5.19 | > 100 | 1.78 | 10.2 | 1.86 | 4.58 | 2.58 | 10.8
CSc1nc(SC)c2cnn(-c3ccnc4cc(Cl)ccc34)c2n1 | > 59.1 | > 100 | > 56.5 | > 100 | > 100 | > 100 | 20 | 67.4 | 19.7 | 58.1 | > 100 | > 100 | > 67.8 | > 100 | > 100 | > 100 | 5.46 | > 100 | 23.3 | > 100
CC[C@@]1(O)C(=O)OCc2c1cc1n(c2=O)Cc2cc3c(OC)cccc3nc2-1 | 0.0405 | 5.65 |  | 1.9 |  | 5.25 |  | > 100 | 0.0035 | 1.01 |  | 5.86 | 0.00687 | 2.06 | 0.00535 |  | 0.00186 | 2.65 |  | > 100
CN(CCNc1ccc(C(=N)N)cc1)c1ccc(C(=N)N)cc1 | > 100 | > 100 | 50 | > 100 | 17 | 41.1 | > 100 | > 100 | 37.8 | > 100 | 38.3 | > 100 | 27.6 | > 100 | 54.8 | > 100 | 5.8 | 60.2 | 16.1 | 51.9
CN1CCN(C(=O)OCc2nc3c(N4CCOCC4)nc(-c4ccccc4)nc3n2C)CC1 | 0.329 | 1.19 | 1.17 | 3.04 | 1.36 | 3.75 | 1.09 | 2.37 | 1.41 | 2.85 | 1.55 | 3.53 | 1.04 | 2.27 | 0.377 | 1.8 | 1.58 | 2.96 | 1.23 | 3.93
ClCCN(CCCl)c1ccc(OCc2ccccc2)cc1 | 6.46 | 65.8 | 3.3 | 75.7 | 12.1 | 32.4 | 16.6 | 48.6 | 2.07 | 22.5 | 14.2 | 36.7 | 1.81 | 12 | 3.99 | 41.4 | 1.79 | > 100 | 15.7 | 69.4
CSc1nc(SC)c2c(C)cn(Cc3ccccc3)c2n1 |  | > 100 |  | > 100 |  | > 100 |  | > 100 |  | > 100 |  | > 100 |  | > 100 |  | > 100 |  | > 100 |  | > 100
CCOC(=O)c1c2c(n(Cc3ccccc3)c1C)-c1nc[nH]c1C(=O)C2=O | 20.5 | 41.8 | 14.8 | 28 | 20.2 | 35.1 | 13.1 | 28.3 | 17.1 | 31.2 | 13.9 | 27.7 | 4.13 | 16.2 | 14.7 | 28.4 | 15.3 | 30.9 | 29.3 | 88.1
Cc1ccc([I+]c2ccc(C)cc2)cc1 | 3.94 | > 100 | 2.2 | 46.5 | 6.93 | 95.2 | 25.1 | > 100 | 7.49 | > 100 | 4.27 | 52.2 | 7.44 | > 100 | 21.3 | > 100 | 1.86 | 8.74 | 24.8 | > 100
CC(C)c1ccc2c(c1)CCC1C(C)(CN)CCCC21C (centres undefined) |  | 2.9 |  | 3.4 |  | 1.43 |  | 2.95 |  | 3.22 |  | 3.34 |  | 3.19 |  | 2.66 |  | 3.34 |  | 3.57
O=C1/C(=C\c2ccc(Cl)cc2)CN(C(=O)c2ccccc2)C/C1=C\c1ccc(Cl)cc1 | 1.75 | 5.01 | 3.41 | > 100 | 3.45 | 10.5 | 2.47 | 6.9 | 3.74 | 17.5 | 1.2 | 3.18 | 3.77 | > 71.8 | 1.83 | 5.33 | 3.38 | 57.7 | 2.92 | 9.17
